Assays:
Test in all cases: Cell proliferation assay (Alamar Blue)
Type in all cases: cell-based
[1] = tested on: Hep3B2.1-7; details: 144 h; Hep3B2.1-7 liver cancer cell line; 6 days
Method: (§1) 1. Instruments and Materials • Thermo 311 CO2 incubator; Haier biosafety cabinet; Molecular Devices microplate reader; Xiangyi brand L530 desktop low speed centrifuge; Olympus IX51 inverted fluorescence microscope, DMEM, RPMI 1640, MEM, DMEM/F12 1:1 medium, Fetal bovine serum, 0.25% trypsin solution, phosphate buffer (Thermo Fisher Shanghai Co., Ltd.); sigma dimethyl sulfoxide (DMSO), resazurin; 54 commercial tumor cell lines (including 26 liver cancer cell lines). Experimental drugs: compounds 1-12 and active drug Linifanib; chemotherapeutic drug Doxorubicin (HY-15142; Shanghai Qianyuan Biomedical Technology Co., Ltd.).
(§2) 2. Experimental Methods • 2.1 Cultivation of different cell lines • 54 cell lines were cultured in a culture medium containing fetal bovine serum and placed in a 5% CO 2 incubator at 37° C. for incubation. The cells were all grown in an adherent state, and the growth was observed under an inverted microscope, and subculture was performed when the cell confluence rate reached 80%-90%. The proportion and quantity of passage were determined by experimental needs. The ratio of subculture of this cell line was generally 1:2^˜1:3. • 2.2 inhibition effect on the proliferation of different tumor cell lines • Cell test: 54 cell lines in logarithmic growth phase were inoculated in 96-well culture plates at 500^˜1×10^4/well (the optimal seeding density of each cell line was determined in pre-experiment), After incubating at 37° C. for 4 h in a 5% CO2 humidification incubator, added 10 μL of compounds 1-12 or Linifanib to each well, and tested 9 drug concentration gradients for each compound (diluted from the highest concentration of the test by 3.16 times). The solubility of each compound was different at a starting concentration of 30 or 100 μM, respectively. The QC reference compound Doxorubicin was added simultaneously to each cell line test, and the final drug concentrations were 10, 3.16, 1, 0.31, 0.1, 0.03, 0.01, 0.003, and 0.001 μM, respectively. In addition, a positive control group (100% inhibition) and a negative control group (0% inhibition) were set at the same time. The drug group was repeated for 2 wells per concentration, and the positive control group and the negative control group were repeated for 6 wells. After the culture was continued for 6 days in the incubator, AlamarBlue test operation was followed; • AlamarBlue test procedure: Incubated with 10 μL of AlamarBlue reagent per well for 1-4 h, shook for 1-2 min, MD microplate reader EX: 560 nm, EM: 590 nm wavelength to measure fluorescence, recorded the results, calculated the cell inhibition rate of the compound of the invention. Cell inhibition rate (%)=(A0% inhibition−A administration)/(A0% inhibition−A100% inhibition)×100%, and then using the method of nonlinear regression using Graph Pad Prism 5.0 or MATILAB software (usually using four parameters) to graph and obtain a drug dose response curve to obtain an IC50 value of the compound of the present invention acting on a cancer cell line.

[2] = tested on: JHH5; details: 144 h; JHH5 liver cancer cell line; 6 days
Method: as §1, §2

[3] = tested on: NCl-H2170; details: 144 h; NCl-H2170 tumor cell line; 6 days
Method: as §1, §2

[4] = tested on: MFM-223; details: Homo sapiens, 144 h; MFM-223 tumor cell line; 6 days
Method: as §1, §2

[5] = tested on: NCl-H661; details: 144 h; NCl-H661 tumor cell line; 6 days
Method: as §1, §2

[6] = tested on: SNU398; details: Homo sapiens, SNU-398, 144 h; SNU398 liver cancer cell line; 6 days
Method: as §1, §2

[7] = tested on: JHH1; details: 144 h; JHH1 liver cancer cell line; 6 days
Method: as §1, §2

[8] = tested on: SNU449; details: Homo sapiens, SNU-449, 144 h; SNU449 liver cancer cell line; 6 days
Method: as §1, §2

[9] = tested on: MDA-MB-231; details: Homo sapiens, 144 h; MDA-MB-231 tumor cell line; 6 days
Method: as §1, §2

[10] = tested on: SNU475; details: Homo sapiens, SNU-475, 144 h; SNU475 liver cancer cell line; 6 days
Method: as §1, §2

[11] = tested on: JHH2; details: JHH-2, 144 h; JHH2 liver cancer cell line; 6 days
Method: as §1, §2

[12] = tested on: NCl-H716; details: 144 h; NCl-H716 tumor cell line; 6 days
Method: as §1, §2

[13] = tested on: SK-HEP-1; details: Homo sapiens, SK-HEP1, 144 h; SK-HEP-1 liver cancer cell line; 6 days
Method: as §1, §2

[14] = tested on: SNU354; details: Homo sapiens, SNU-354, 144 h; SNU354 liver cancer cell line; 6 days
Method: as §1, §2

[15] = tested on: HLF; details: 144 h; HLF liver cancer cell line; 6 days
Method: as §1, §2

[16] = tested on: AN3CA; details: Homo sapiens, AN3-CA, 144 h; AN3CA (endometrial cells); 6 days
Method: as §1, §2

[17] = tested on: HuTu80; details: Homo sapiens, 144 h; HuTu80 tumor cell line; 6 days
Method: as §1, §2

[18] = tested on: T.T; details: Homo sapiens, TT, 144 h; T.T tumor cell line; 6 days
Method: as §1, §2

[19] = tested on: SNU886; details: SNU-886, 144 h; SNU886 liver cancer cell line; 6 days
Method: as §1, §2

[20] = tested on: NCl-H526; details: 144 h; NCl-H526 tumor cell line; 6 days
Method: as §1, §2

[21] = tested on: CCRF-CEM; details: Homo sapiens, 144 h; CCRF-CEM tumor cell line; 6 days
Method: as §1, §2

[22] = tested on: MDA-MB-435S; details: Homo sapiens, 144 h; MDA-MB-435S tumor cell line; 6 days
Method: as §1, §2

[23] = tested on: TE-6; details: Homo sapiens, 144 h; TE-6 tumor cell line; 6 days
Method: as §1, §2

IC50 [1] [µM]	IC50 [3] [µM]	IC50 [5] [µM]	IC50 [6] [µM]	IC50 [8] [µM]	IC50 [9] [µM]	IC50 [10] [µM]	IC50 [12] [µM]	IC50 [13] [µM]	IC50 [14] [µM]	IC50 [19] [µM]	IC50 [20] [µM]	Compound	IC50 [2] [µM]	IC50 [4] [µM]	IC50 [7] [µM]	IC50 [11] [µM]	IC50 [15] [µM]	IC50 [16] [µM]	IC50 [17] [µM]	IC50 [18] [µM]	also measured
> 30	> 30	> 30	> 30	> 30	> 30	> 30	> 30	> 30	> 30	> 30	> 30	Cc1ccc(F)c(NC(=O)Nc2ccc(-c3cccc4c3c(N)nn4C(=O)CCCCCCCCCCCNC(=O)C[C@H](N)C(=O)O)cc2)c1 [Compound 12]	> 30	> 30	> 30	> 30	> 30	2.08	> 30	> 30	IC50 [21]: > 30 µM; IC50 [22]: > 30 µM; IC50 [23]: > 30 µM
1.96	4	13.3	1.91	10.2	4.03	5.37	4.1	7.11	4.58	4.48	7.8	Cc1ccc(F)c(NC(=O)Nc2ccc(-c3cccc4[nH]nc(N)c34)cc2)c1 [Linifanib, reference compound]	10	1.72	12.2	29.5	3.65	0.19	1.85	4.86	IC50 [21]: 5.03 µM; IC50 [22]: 10.7 µM; IC50 [23]: 4.09 µM
1.59	0.97	7.09	2.61	5.21	3.95	4.85	1.82	4.59	3.91	1.47	6.6	Cc1ccc(F)c(NC(=O)Nc2ccc(-c3cccc4c3c(N)nn4C(=O)C[C@H](N)C(=O)N[C@@H](CCC(=O)O)C(=O)O)cc2)c1 [Compound 1]	15.2	8.89	8.15	28.9	3.98	0.31	3.17	5.22	IC50 [21]: 2.5 µM; IC50 [22]: 18.9 µM; IC50 [23]: 4.29 µM
13	22.5	86.7	18.1	31.6	32.1	40.7	8.45	29.2	30.2	22	> 100	Cc1ccc(F)c(NC(=O)Nc2ccc(-c3cccc4c3c(N)nn4C(=O)CCCCCCCCCCCNC(=O)C[C@H](N)C(=O)N[C@@H](CCC(=O)O)C(=O)O)cc2)c1 [Compound 7]	> 100	24.1	> 100	> 100	24.4	2.94	21.1	> 100	IC50 [21]: 15 µM; IC50 [22]: > 100 µM; IC50 [23]: 74.3 µM

Compound	IC50 [1] [µM]	IC50 [3] [µM]	IC50 [5] [µM]	IC50 [6] [µM]	IC50 [8] [µM]	IC50 [9] [µM]	IC50 [10] [µM]	IC50 [12] [µM]	IC50 [13] [µM]	IC50 [14] [µM]	IC50 [19] [µM]	IC50 [20] [µM]	IC50 [2] [µM]	IC50 [4] [µM]	IC50 [7] [µM]	IC50 [11] [µM]	IC50 [15] [µM]	IC50 [16] [µM]	IC50 [17] [µM]	IC50 [18] [µM]	also measured
Cc1ccc(F)c(NC(=O)Nc2ccc(-c3cccc4c3c(N)nn4C(=O)CCCCCNC(=O)C[C@H](N)C(=O)N[C@@H](CCC(=O)N[C@@H](CCC(=O)N[C@@H](CCC(=O)N[C@@H](CCC(=O)N[C@@H](CCC(=O)N[C@@H](CCC(=O)N[C@@H](CCC(=O)N[C@@H](CCC(=O)N[C@@H](CCC(=O)O)C(=O)O)C(=O)O)C(=O)O)C(=O)O)C(=O)O)C(=O)O)C(=O)O)C(=O)O)C(=O)O)cc2)c1 [Compound 6]	95.6	> 100	> 100	> 100	> 100	> 100	> 100	92.1	> 100	> 100	> 100	> 100	> 100	72.2	> 100	> 100	82.1	55.4	61	> 100	IC50 [21]: 90.5 µM; IC50 [22]: > 100 µM; IC50 [23]: > 100 µM

From US11351151B2, “Compound having anticancer activity and preparation method and application” (3D Medicines (Beijing) Co., Ltd., priority 2016, dated 2022)
